Data as given in publication PMC10383864, “Novel 2-Sulfanylquinazolin-4(3H)-one Derivatives as Multi-Kinase Inhibitors and Apoptosis Inducers: A Synthesis, Biological Evaluation, and Molecular Docking Study” (Molecules, 2023).
Where two headings read alike, the source gives them in different places.

Legend:
[1] = test system: HeLa cells; test: MTT cytotoxicity assay; type: cell-based, human; details: 24 h treatment, mean ± SD of three experiments, read-out: In Vitro Cytotoxicity IC50 HeLa
Experimental: (§1) In addition, the safety profile of the 2-sulfanylquinazolin-4(3H)-one derivatives was evaluated against normal human cells (WI38) […]. The standard MTT (3-(4,5-dimethylthiazol-2-yl)-2,5 diphenyl tetrazolium bromide) colorimetric assay protocol was used, as described by Mosmann. […] The results were expressed as growth inhibitory concentration (IC50) values.
(§2) The cell lines were obtained from ATCC (American Type Culture Collection). […] After incubation, the cells were treated with different concentrations of the synthesized compounds and incubated for 24 h. Afterward, the cells were washed with PBS, and 20 µL of MTT solution at 5 mg/mL was added, all incubated for 4 h. The MTT solution was discarded, and 100 µL of dimethyl sulfoxide (DMSO) was added per well. […] The relative cell viability in percentage was calculated as (A570 of treated cells/A570 of untreated cells) × 100.

[2] = test system: MDA-MB-231 cells; test: MTT cytotoxicity assay; type: cell-based, human; details: MDA-MB-231, MTT, 24 h treatment, mean ± SD of three experiments, read-out: In Vitro Cytotoxicity IC50 MDA-MB-231
Experimental: as §1, §2

[3] = test system: HepG2 cells; test: MTT cytotoxicity assay; type: cell-based, human; details: 24 h treatment, mean ± SD of three experiments, read-out: In Vitro Cytotoxicity IC50 HepG2
Experimental: as §1, §2

[4] = test system: MCF-7 cells; test: MTT cytotoxicity assay; type: cell-based, human; details: MCF-7, MTT, 24 h treatment, mean ± SD of three experiments, read-out: In Vitro Cytotoxicity IC50 MCF-7
Experimental: as §1, §2

[5] = MTT cytotoxicity assay, normal human cell line; type: cell-based; details: human, WI38 cells (normal human cells), 24 h treatment, mean ± SD of three experiments, read-out: In Vitro Cytotoxicity IC50 WI38
Experimental: as §1, §2

[6] = test system: HepG2 cells; test: Annexin V-FITC/PI apoptosis assay; type: cell-based, human; details: HepG2, 7.1 µM, 24 h
Experimental: (§3) In order to investigate apoptosis, the most cytotoxic compound in anti-proliferative assay 5d was further exposed to […] using the standard Annexin V/PI double staining procedure.
The apoptotic and necrotic effect of compound 5d was investigated using flow cytometry, as described in [43]. The HepG2 cells were treated with 7.1 µM of compound 5d for 24 h. After treatment, the cells were collected by trypsinization, centrifuged, and washed two times with PBS. A suspension of cells in 500 μL binding buffer was double stained with 5 μL Annexin V-FITC and 5 μL PI in the dark at room temperature for 15 min. The stained cells were measured using an Epics XL-MCL™ Flow Cytometer (Beckman Coulter), and the data were analyzed using Flowing software (version 2.5.1, Turku Centre for Biotechnology, Turku, Finland).

[7] = molecular target: T1, EGFR (Homo sapiens, UniProt P00533); test: Kinase inhibition, ELISA kit; type: biochemical; details: mean ± SD of three experiments
T1 construct: purchased
T1 sequence (P00533 25-1210): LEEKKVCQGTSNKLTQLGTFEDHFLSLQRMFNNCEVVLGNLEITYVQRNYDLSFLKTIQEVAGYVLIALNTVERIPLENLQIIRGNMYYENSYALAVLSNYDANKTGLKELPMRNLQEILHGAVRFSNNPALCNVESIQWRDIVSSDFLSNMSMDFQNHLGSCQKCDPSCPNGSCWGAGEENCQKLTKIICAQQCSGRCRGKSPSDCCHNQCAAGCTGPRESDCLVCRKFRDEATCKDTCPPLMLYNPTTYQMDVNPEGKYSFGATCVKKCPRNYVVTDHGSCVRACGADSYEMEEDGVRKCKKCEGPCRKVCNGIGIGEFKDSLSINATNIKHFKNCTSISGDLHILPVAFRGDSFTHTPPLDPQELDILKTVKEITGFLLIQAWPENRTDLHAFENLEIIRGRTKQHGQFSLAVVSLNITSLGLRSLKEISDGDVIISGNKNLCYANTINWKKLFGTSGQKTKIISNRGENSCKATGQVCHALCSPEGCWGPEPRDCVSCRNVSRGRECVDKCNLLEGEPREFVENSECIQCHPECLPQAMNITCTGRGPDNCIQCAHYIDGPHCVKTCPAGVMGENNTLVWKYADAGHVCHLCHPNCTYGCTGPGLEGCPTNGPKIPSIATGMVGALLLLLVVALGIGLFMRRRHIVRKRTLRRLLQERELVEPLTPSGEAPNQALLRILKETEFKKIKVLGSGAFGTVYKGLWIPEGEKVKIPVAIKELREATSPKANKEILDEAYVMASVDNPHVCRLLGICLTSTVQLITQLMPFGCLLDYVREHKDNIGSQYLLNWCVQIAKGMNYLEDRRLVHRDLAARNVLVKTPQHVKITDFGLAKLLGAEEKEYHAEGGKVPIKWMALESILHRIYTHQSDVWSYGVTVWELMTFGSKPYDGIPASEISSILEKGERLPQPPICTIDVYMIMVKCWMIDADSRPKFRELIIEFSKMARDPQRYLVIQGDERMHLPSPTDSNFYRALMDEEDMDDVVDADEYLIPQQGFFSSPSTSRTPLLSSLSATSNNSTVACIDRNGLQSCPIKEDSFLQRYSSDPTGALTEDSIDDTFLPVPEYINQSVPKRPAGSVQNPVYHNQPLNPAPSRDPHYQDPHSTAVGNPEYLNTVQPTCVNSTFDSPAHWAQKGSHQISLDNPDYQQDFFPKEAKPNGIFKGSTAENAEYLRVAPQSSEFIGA
Experimental: The corresponding kinase inhibitory kit assays were used, and the results are expressed as IC50 values (µM), as presented in Table 2. […] Afterward, the plate was incubated at room temperature for 2.5 h and then washed with PBS. A total of 100 μL of the prepared biotin antibody was added and incubated at room temperature for an additional 1 h, and then 100 μL of streptavidin solution was added and incubated at room temperature for another 45 min. After washing, 100 μL of TMB substrate reagent was added and incubated for 30 min at room temperature. Finally, about 50 μL of the stop solution was added and then read at 450 nm immediately. A standard curve was drawn, with concentrations on the X-axis and absorbance on the Y-axis.

[8] = test system: HepG2 cells; test: Flow cytometry analysis of cell cycle; type: cell-based, human; details: HepG2, 7.1 µM, 24 h
Experimental: as §3
Flow cytometry analysis was conducted to assess the effect of compound 5d on the cell cycle distribution in HepG2 cells. The Flow Cytometry Kit for cell cycle analysis (ab139418_Propidium Iodide Flow Cytometry Kit/BD) was used in this test. First, the HepG2 cells were seeded in six-well plates at a density of 2 × 10^5 cells/well and incubated for 24 h. In the second step, 10% FBS was added, and the cells were incubated at 37 °C and 5% CO2. The medium was replaced with (DMSO 1% v/v) containing 7.1 µM of compound 5d and then incubated for 24 h. After that, the cells were fixed with 70% ethanol at 4 °C for 12 h and washed with cold PBS, and then rinsed with PBS. In the last step, 100 μL of RNase A was added to each well and incubated at 37 °C for 30 min and stained with 400 μL PI in the dark at room temperature for an additional 30 min. The stained cells were measured using an Epics XL-MCL™ Flow Cytometer (Beckman Coulter), and the data were analyzed using Flowing software (version 2.5.1, Turku Centre for Biotechnology, Turku, Finland).

[9] = molecular target: T2, VEGFR2 (Homo sapiens, UniProt P35968); test: Kinase inhibition, ELISA kit; type: biochemical; details: mean ± SD of three experiments
T2 construct: purchased
T2 sequence (P35968 20-1356): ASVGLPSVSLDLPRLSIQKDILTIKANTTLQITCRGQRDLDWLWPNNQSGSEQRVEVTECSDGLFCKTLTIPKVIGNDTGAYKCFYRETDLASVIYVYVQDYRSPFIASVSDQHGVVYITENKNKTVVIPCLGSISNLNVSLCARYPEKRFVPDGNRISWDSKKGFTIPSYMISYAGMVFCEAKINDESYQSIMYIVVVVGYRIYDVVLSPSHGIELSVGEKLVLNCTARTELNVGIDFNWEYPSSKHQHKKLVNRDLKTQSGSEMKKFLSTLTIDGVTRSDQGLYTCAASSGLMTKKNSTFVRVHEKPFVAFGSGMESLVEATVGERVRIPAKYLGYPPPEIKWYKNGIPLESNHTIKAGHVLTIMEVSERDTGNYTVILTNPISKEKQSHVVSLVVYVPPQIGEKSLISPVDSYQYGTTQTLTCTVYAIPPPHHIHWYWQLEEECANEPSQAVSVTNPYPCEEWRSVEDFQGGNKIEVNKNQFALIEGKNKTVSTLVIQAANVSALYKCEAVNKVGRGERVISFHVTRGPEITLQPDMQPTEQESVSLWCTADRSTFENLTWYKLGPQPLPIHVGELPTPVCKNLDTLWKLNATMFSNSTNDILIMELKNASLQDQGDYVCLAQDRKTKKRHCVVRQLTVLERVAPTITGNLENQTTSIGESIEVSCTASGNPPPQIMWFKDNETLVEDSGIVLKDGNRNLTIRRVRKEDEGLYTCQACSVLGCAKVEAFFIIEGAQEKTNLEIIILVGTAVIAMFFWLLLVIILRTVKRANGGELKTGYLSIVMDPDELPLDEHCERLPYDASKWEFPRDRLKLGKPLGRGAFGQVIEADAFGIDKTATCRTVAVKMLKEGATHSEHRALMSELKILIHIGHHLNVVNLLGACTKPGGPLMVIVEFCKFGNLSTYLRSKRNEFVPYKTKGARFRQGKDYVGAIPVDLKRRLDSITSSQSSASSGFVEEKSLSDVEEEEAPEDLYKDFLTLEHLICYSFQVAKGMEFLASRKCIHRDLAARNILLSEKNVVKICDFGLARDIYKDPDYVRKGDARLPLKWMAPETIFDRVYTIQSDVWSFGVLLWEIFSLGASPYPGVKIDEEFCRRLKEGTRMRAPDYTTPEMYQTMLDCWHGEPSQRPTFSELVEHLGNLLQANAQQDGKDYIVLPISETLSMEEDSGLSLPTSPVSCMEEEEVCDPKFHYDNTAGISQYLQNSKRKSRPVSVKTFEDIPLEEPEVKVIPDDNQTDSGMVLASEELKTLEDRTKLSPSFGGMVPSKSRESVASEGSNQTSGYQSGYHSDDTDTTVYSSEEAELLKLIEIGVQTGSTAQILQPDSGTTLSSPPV
Experimental: . The corresponding kinase inhibitory kit assays were used, and the results are expressed as IC50 values (µM), as presented in Table 2. […]. The inhibitory activity of compound 5d against CDK2, HER2, EGFR, and VEGFR2 was evaluated using the corresponding human kinases ELISA kit (Enzyme-Linked Immunosorbent Assay). In brief, specific antibodies for each kinase were seeded on a 96-well plate, and 100 μL of the standard solution or compound 5d was added. Afterward, the plate was incubated at room temperature for 2.5 h and then washed with PBS. A total of 100 μL of the prepared biotin antibody was added and incubated at room temperature for an additional 1 h, and then 100 μL of streptavidin solution was added and incubated at room temperature for another 45 min. After washing, 100 μL of TMB substrate reagent was added and incubated for 30 min at room temperature. Finally, about 50 μL of the stop solution was added and then read at 450 nm immediately. A standard curve was drawn, with concentrations on the X-axis and absorbance on the Y-axis.

[10] = test system: caspase-3; test: RT-PCR of apoptosis-related genes in HepG2 cells; type: cell-based, human; details: HepG2 cells treated with 5d, control = 1, increase
Experimental: (§4) RT-PCR reactions were carried out to investigate the relative gene expression of apoptosis-related genes, including the proapoptotic genes Bax, caspases 3 and 9, and the anti-apoptotic Bcl2 gene. […] Therefore, it can be concluded that the induction of apoptosis in HepG2 cells upon treatment with 5d is associated with the upregulation of proapoptotic genes and the downregulation of anti-apoptotic genes.
(§5) The level of apoptotic markers caspase-3, caspase-9, Bax, and Bcl-2 was measured using BIORAD iScript TM One-Step RT-PCR kit with SYBR® Green. According to the manufacturer’s instructions, the kit was used in three subsequent steps.
(§6) mRNA isolation of up to 1 × 10^7 cells was carried out using an RNeasy extraction kit. Cells were disrupted in RNeasy Lysis Buffer (RLT buffer) and homogenized. Ethanol was then added to make a lysate and provoke the selective binding of RNA to the RNeasy membrane. The sample was then applied to the RNeasy mini spin column, where total RNA binds to the membrane while contaminants pass through. The RNA was then eluted in RNase-free water.
(§7) All the following reagents were mixed to make about 50 μL mixture: 2X SYBR® Green RT-PCR reaction mixture (25 μL), forward primer (10 μM; 1.5 μL), reverse primer (10 μM; 1.5 μL), nuclease-free H2O (11 μL), RNA template (1 pg to 100 ng total RNA; 10 μL) and iScript reverse transcriptase for One-Step RT-PCR (1 μL).
(§8) The whole reaction mixture was incubated in a real-time thermal detection system (Rotorgene) as follows: cDNA synthesis (10 min at 50 °C), iScript reverse transcriptase inactivation (5 min at 95 °C), PCR cycling and detection (30–45 cycles):10 s at 95 °C and 30 s at 55 °C to 60 °C (data collection step) and melt curve analysis: 1 min at 95 °C, 1 min at 55 °C and 10 s at 55 °C–95 °C (80 cycles, increasing each by 0.5 °C each cycle).

[11] = test system: caspase-9; test: RT-PCR of apoptosis-related genes in HepG2 cells; type: cell-based, human; details: HepG2 cells treated with 5d, control = 1, increase
Experimental: as §4, §5, §6, §7, §8

[12] = test system: Bax; test: RT-PCR of apoptosis-related genes in HepG2 cells; type: cell-based, human; details: HepG2 cells treated with 5d, control = 1, increase
Experimental: as §4, §5, §6, §7, §8

[13] = test system: Bcl2; test: RT-PCR of apoptosis-related genes in HepG2 cells; type: cell-based, human; details: HepG2 cells treated with 5d, control = 1, downregulated
Experimental: as §4, §5, §6, §7, §8

[14] = test system: WI38 cells; test: MTT cytotoxicity assay, normal human cell line; type: cell-based; details: 24 h treatment, mean ± SD of three experiments, read-out: In Vitro Cytotoxicity IC50 WI38
Experimental: as §1, §2

[15] = molecular target: T3, HER2 (Homo sapiens, UniProt P04626); test: Kinase inhibition, ELISA kit; type: biochemical; details: mean ± SD of three experiments
T3 construct: purchased
T3 sequence (P04626 23-1255): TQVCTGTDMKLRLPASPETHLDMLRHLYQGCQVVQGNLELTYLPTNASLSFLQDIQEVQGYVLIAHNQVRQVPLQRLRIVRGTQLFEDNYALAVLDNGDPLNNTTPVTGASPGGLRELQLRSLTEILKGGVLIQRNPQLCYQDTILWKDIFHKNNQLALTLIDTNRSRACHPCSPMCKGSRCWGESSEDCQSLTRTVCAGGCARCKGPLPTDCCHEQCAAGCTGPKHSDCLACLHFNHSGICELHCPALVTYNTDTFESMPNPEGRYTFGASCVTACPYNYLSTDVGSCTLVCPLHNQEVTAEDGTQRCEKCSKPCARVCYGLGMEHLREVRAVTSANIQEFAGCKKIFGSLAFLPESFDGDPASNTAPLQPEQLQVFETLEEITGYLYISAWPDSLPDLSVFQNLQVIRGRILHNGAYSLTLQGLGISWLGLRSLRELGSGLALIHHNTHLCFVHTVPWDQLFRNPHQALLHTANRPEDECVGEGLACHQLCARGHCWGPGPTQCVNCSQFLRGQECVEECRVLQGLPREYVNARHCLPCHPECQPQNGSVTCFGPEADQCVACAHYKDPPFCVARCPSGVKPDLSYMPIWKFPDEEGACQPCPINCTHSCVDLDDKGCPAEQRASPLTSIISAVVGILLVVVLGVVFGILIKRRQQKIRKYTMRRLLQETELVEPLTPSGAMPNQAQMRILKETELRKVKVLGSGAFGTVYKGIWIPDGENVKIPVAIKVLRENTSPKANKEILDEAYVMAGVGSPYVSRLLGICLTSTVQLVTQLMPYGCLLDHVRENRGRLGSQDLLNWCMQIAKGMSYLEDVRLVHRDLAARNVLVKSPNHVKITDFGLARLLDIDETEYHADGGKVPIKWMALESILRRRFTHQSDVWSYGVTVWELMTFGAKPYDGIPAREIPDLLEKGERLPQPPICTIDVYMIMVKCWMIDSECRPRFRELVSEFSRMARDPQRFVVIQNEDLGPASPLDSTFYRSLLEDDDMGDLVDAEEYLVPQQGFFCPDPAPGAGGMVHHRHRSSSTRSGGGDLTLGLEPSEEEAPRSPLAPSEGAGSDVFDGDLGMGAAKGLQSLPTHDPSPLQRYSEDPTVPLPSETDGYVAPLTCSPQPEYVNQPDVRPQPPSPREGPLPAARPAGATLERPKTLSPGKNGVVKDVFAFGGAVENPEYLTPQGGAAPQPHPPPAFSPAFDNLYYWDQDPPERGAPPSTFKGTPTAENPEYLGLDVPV
Experimental: (§9) The corresponding kinase inhibitory kit assays were used, and the results are expressed as IC50 values (µM), as presented in Table 2.
(§10) Afterward, the plate was incubated at room temperature for 2.5 h and then washed with PBS. A total of 100 μL of the prepared biotin antibody was added and incubated at room temperature for an additional 1 h, and then 100 μL of streptavidin solution was added and incubated at room temperature for another 45 min. After washing, 100 μL of TMB substrate reagent was added and incubated for 30 min at room temperature. Finally, about 50 μL of the stop solution was added and then read at 450 nm immediately. A standard curve was drawn, with concentrations on the X-axis and absorbance on the Y-axis.

[16] = molecular target: T4, CDK2 (Homo sapiens, UniProt P24941); test: Kinase inhibition, ELISA kit; type: biochemical; details: mean ± SD of three experiments
T4 construct: purchased
Experimental: as §9, §10

[17] = test system: HepG2, MCF-7, MDA-231, and HeLa; test: MTT cytotoxicity assay, range over the tested cancer cell lines; type: cell-based; details: Homo sapiens, range over HepG2, MCF-7, MDA-231 and HeLa, read-out: IC50 range against all tested cancer cell lines
Experimental: as §1, §2

Row | melting point | SMILES | IC50 ([1]; Homo sapiens, 24 h) | IC50 ([2]; Homo sapiens, MDA-MB-231, 24 h) | IC50 ([3]; Homo sapiens, HepG2, 24 h) | IC50 ([4]; Homo sapiens, MCF7, 24 h) | IC50 at 24 h [5] | further results
1 | 158 to 160 °C | Cc1ccc(CSc2nc3ccc(F)cc3c(=O)n2-c2ccccc2)cc1 [Compound 5b, 6-Fluoro-2-(4-methyl-benzylsulfanyl)-3-Arenyl-3H-quinazolin-4-one] | > 100 µM | 78.3 ± 3.9 µM | 85 ± 4.6 µM | 91.2 ± 4.8 µM | > 100 µM | –
2 | 170 to 172 °C | Cc1ccc(-n2c(SCc3ccc(F)cc3)nc3ccc(F)cc3c2=O)cc1 [Compound 5e, 2-(4-Fluoro-benzylsulfanyl)-6-fluoro-3-(4-methylArenyl)-3H-quinazolin-4-one] | 38.2 ± 2.3 µM | 19.2 ± 1.5 µM | 29.5 ± 2.2 µM | 25.2 ± 1.9 µM | 55.8 ± 3.2 µM | IC50 [17]: 19.2 to 38.2 µM
3 | 156 to 158 °C | Cc1ccc(-n2c(SCc3ccccc3)nc3ccc(F)cc3c2=O)cc1 [Compound 5c, 2-Benzylsulfanyl-6-fluoro-3-(4-methyl-Arenyl)-3H-quinazolin-4-one] | – | – | – | – | – | IC50 [1]: 31.2 ± 2.1 µM; IC50 [2]: 26.9 ± 1.9 µM; IC50 [3]: 34.3 ± 2.4 µM; IC50 [4]: 51.9 ± 3.1 µM; IC50 [14]: 40.9 ± 2.6 µM

More lines, now with the values behind:

Row | SMILES | melting point | IC50 ([1]; Homo sapiens, 24 h) | IC50 ([2]; Homo sapiens, MDA-MB-231, 24 h) | IC50 ([3]; Homo sapiens, HepG2, 24 h) | IC50 ([4]; Homo sapiens, MCF7, 24 h) | IC50 at 24 h [5] | further results
4 | Cc1ccc(CSc2nc3ccc(F)cc3c(=O)n2-c2ccc(F)cc2)cc1 [Compound 5a, 3-(4-fluoro-Arenyl)-6-fluoro-2-(4-methyl-benzylsulfanyl)-3H-quinazolin-4-one] | 166 to 168 °C | 83.2 ± 4.1 µM | 79.1 ± 4 µM | > 100 µM | 86 ± 4.4 µM | 28.7 ± 2.2 µM | –
5 | Cc1ccc(-n2c(SCc3ccc(Cl)cc3)nc3ccc(F)cc3c2=O)cc1 [Compound 5d, 2-(4-Chloro-benzylsulfanyl)-6-fluoro-3-(4-methylArenyl)-3H-quinazolin-4-one] | – | 6.38 ± 0.4 µM | 1.94 ± 0.1 µM | 7.1 ± 0.6 µM | 2.48 ± 0.2 µM | 40.9 µM | necrosis, % of cell population ([6]; control 1.45%): 3.08%; total apoptosis, % of cell population ([6]; control 2.28%): 28.04%; IC50 [7]: 0.22 ± 0.013 µM; phase of cell cycle arrest [8]: S phase; drop in the cell population at the G0-G1 phase ([8]; in comparison to the control): 4.5%; drop in the cell population at the G2/M phase ([8]; in comparison to the control): 4.73%; increase in the cell population in the S phase ([8]; in comparison to the control): 9.23%; IC50 [9]: 0.336 ± 0.009 µM; gene expression of caspase-3, fold change [10]: three; gene expression of caspase-9, fold change [11]: two; gene expression of Bax, fold change [12]: three; expression of anti-apoptotic gene Bcl2, fold change [13]: 0.4 fold; IC50 [14]: 64.3 ± 3.5 µM; IC50 [15]: 0.184 ± 0.008 µM; IC50 [16]: 2.1 ± 0.126 µM; IC50 [17]: 1.94 to 7.1 µM
6 | CCN(CC)CCNC(=O)c1c(C)[nH]c(/C=C2\C(=O)Nc3ccc(F)cc32)c1C [Sunitinib, sunitinib, reference compound] | – | 21.8 ± 1.7 µM | 19 ± 1.5 µM | 11.3 ± 1 µM | 24.8 ± 1.8 µM | 77.3 ± 4.3 µM | –
7 | COc1cccc2c1C(=O)c1c(O)c3c(c(O)c1C2=O)C[C@@](O)(C(=O)CO)C[C@@H]3O[C@H]1C[C@H](N)[C@H](O)[C@H](C)O1 [Dox., doxorubicin, reference compound] | – | – | – | 4.5 ± 0.2 µM | – | – | –
